Source: patent US9770026B2, “Substituted pyrimidine compound and uses thereof” (Shenyang Sinochem Agrochemicals R&D Co., Ltd., priority 2012, dated 2017)

Key:
rice blast = assay: microbe, parasite or virus in culture; assay type: cell-based; conditions: for inhibition at 25 ppm: read-out: inhibition rate against rice blast, 25 ppm, in vitro
corn rust = assay: protectant activity in vivo against corn rust; conditions: for pest or weed control at 100 ppm: read-out: protectant activity against corn rust in vivo, 100 ppm; for pest or weed control at 400 ppm: read-out: protectant activity against corn rust in vivo, 400 ppm
cucumber downy mildew = assay: protectant activity in vivo against cucumber downy mildew; conditions: Cucumis sativus, 168 h; for pest or weed control at 400 ppm: read-out: protectant activity against cucumber downy mildew in vivo, 400 ppm; for pest or weed control at 50 ppm: read-out: protectant activity against cucumber downy mildew in vivo, 50 ppm; for pest or weed control at 100 ppm: read-out: protectant activity against cucumber downy mildew in vivo, 100 ppm
[1] = tested on: Green peach aphids (Myzus Persicae Sulzer); assay: bioactivity test against green peach aphid, airbrush foliar spray; assay type: in vivo; conditions: death rate after 48 hrs; for pest or weed control at 10 ppm / pest or weed control at 100 ppm / pest or weed control at 600 ppm: Myzus persicae, foliar, 48 h
Summary of the method: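 Aphids (15-30 per cabbage leaf disc) on moist filter paper were airbrush-sprayed at 10 psi, 0.5 mL, with compound from acetone:methanol (1:1) diluted in water with 0.1% tween 80. Held at 25±1 C, 60±5% RH; survivors counted after 48 hrs to give death rates.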

carmine spider mite = assay: bioactivity test against carmine spider mite, airbrush spray; assay type: in vivo; conditions: Tetranychus cinnabarinus, 72 h, mortality after 72 hrs
Summary of the method: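 Broadbean seedlings infested with adult mites were sprayed with compound (acetone/methanol stock diluted in 0.1% Tween 80 water) by airbrush at 0.7 kg/cm^2, 0.5 ml. Three replicates were run. Mortality was scored after 72 hrs.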

wheat powdery mildew = assay: protectant activity in vivo against wheat powdery mildew; conditions: Triticum aestivum, 168 h, read-out: protectant activity against wheat powdery mildew in vivo, 400 ppm

In the case of `CCc1nc(C)nc(NCCc2ccc(Oc3ncc(C(N)=O)cc3Cl)cc2)c1Cl` [Compound I-6791], the inhibition at 25 ppm (rice blast; Pyricularia oryzae) is reported as 80 to 99%, the pest or weed control at 100 ppm (corn rust; Zea mays, 168 h) is reported as 80 to 99% and the pest or weed control at 400 ppm (corn rust; Zea mays, 168 h) is reported as 100%.

Work on `CCc1nc(C)nc(NCCc2ccc(Oc3ccc(C(=O)OC)cn3)cc2)c1Cl` [Compound I-6797] yielded an inhibition at 25 ppm (rice blast; Pyricularia oryzae) of 80 to 99%, a pest or weed control at 400 ppm (cucumber downy mildew) of 80 to 99% and a pest or weed control at 10 ppm [1] of 80 to 99%. For the same compound, the pest or weed control at 100 ppm ([1]; 100 ppm) was 100%, the pest or weed control at 600 ppm ([1]; 600 ppm) was 100% and the pest or weed control at 100 ppm (carmine spider mite; 100 ppm) was 100%. It also gave a pest or weed control at 600 ppm (carmine spider mite) of 100% and a pest or weed control at 400 ppm (wheat powdery mildew) of 80 to 99%.

In the case of `FC(F)c1ncnc(NCCc2ccc(Oc3ccc(C(F)(F)F)cc3Cl)nc2)c1Cl` [III-661], the “inhibition rate against rice blast” value (rice blast; 8.3 ppm, in vitro) is reported as 100%, the “protectant activity against corn rust in vivo” value (corn rust; 100 ppm) is reported as 100% and the “protectant activity against corn rust in vivo” value (corn rust; 400 ppm) is reported as 100%. The “control (test results against green peach aphid)” value ([1]; 100 ppm) was 100% and the “control (test results against green peach aphid)” value ([1]; 600 ppm) was 100%.

With `Cc1cc(Cl)ccc1Oc1ccc(CCNc2ncnc(Cl)c2Cl)cn1` [III-2630] the inhibition at 25 ppm (rice blast; Pyricularia oryzae) was 80 to 99%, the pest or weed control at 50 ppm (cucumber downy mildew) was 80 to 99% and the pest or weed control at 100 ppm (cucumber downy mildew) was 80 to 99%. For the same compound, the pest or weed control at 400 ppm (cucumber downy mildew) was 100% and the pest or weed control at 400 ppm (corn rust; Zea mays, 168 h) was 100%.

With `CCOC(=O)c1ccc(Oc2ccc(CCNc3nc(C)nc(CC)c3Cl)cc2)nc1` [Compound I-6796] the inhibition at 25 ppm (rice blast; Pyricularia oryzae) was 80 to 99%, the pest or weed control at 50 ppm (cucumber downy mildew) was 80 to 99% and the pest or weed control at 100 ppm (cucumber downy mildew) was 80 to 99%. The pest or weed control at 400 ppm (cucumber downy mildew) was 100%, the pest or weed control at 6.25 ppm (corn rust; Zea mays, 168 h, read-out: protectant activity against corn rust in vivo, 6.25 ppm) was 80 to 99% and the pest or weed control at 25 ppm (corn rust; Zea mays, 168 h, read-out: protectant activity against corn rust in vivo, 25 ppm) was 80 to 99%. It also gave a pest or weed control at 100 ppm (corn rust; Zea mays, 168 h) of 100%, a pest or weed control at 400 ppm (corn rust; Zea mays, 168 h) of 100% and a pest or weed control at 10 ppm [1] of 100%. For the same compound, the pest or weed control at 100 ppm ([1]; 100 ppm) was 100%, the pest or weed control at 600 ppm ([1]; 600 ppm) was 100% and the pest or weed control at 600 ppm (carmine spider mite) was 80 to 99%. For the same compound, the pest or weed control at 400 ppm (wheat powdery mildew) was 100%.

`CCc1c(Cl)c(NCCc2ccc(Oc3ccc(C(F)(F)F)cc3)cc2)nc[n+]1CC(=O)c1ccc(Cl)cc1` [CK50, reference compound] was tested, and the inhibition at 8.3 ppm (rice blast; Pyricularia oryzae, read-out: inhibition rate against rice blast, 8.3 ppm, in vitro) was 0%, the inhibition at 25 ppm (rice blast; Pyricularia oryzae) was under 50% and the pest or weed control at 6.25 µg/mL (corn rust; Zea mays, 168 h, read-out: control effect against corn rust (%), 6.25 mg/L, protectant activity) was 0%. The pest or weed control at 25 µg/mL (corn rust; Zea mays, 168 h, read-out: control effect against corn rust (%), 25 mg/L, protectant activity) was 0%, the pest or weed control at 100 µg/mL (corn rust; Zea mays, 168 h, read-out: control effect against corn rust (%), 100 mg/L, protectant activity) was 0% and the pest or weed control at 400 µg/mL (corn rust; Zea mays, 168 h, read-out: control effect against corn rust (%), 400 mg/L, protectant activity) was 80%.
